System: RP-B-02 spheroids
Assay: 3D spheroid growth assay RP-B-02
Type: cell-based, human
Conditions: p<0.05
Source text: RP-B-01 and RP-B-02 cells were resuspended in normal growth media containing 3% Reduced Growth Factor Matrigel (BD Biosciences) at a cell density of 1,500 and 3,000 cells/well, respectively and plated in ultra-low adherence 96-well plates (Corning).
Spheroids were allowed to form and then treated on days 4, 8, and 12 following plating with media containing 5% serum, 3% Reduced Growth Factor Matrigel, and APE1/Ref-1 inhibitors. Vehicle control, DMSO, was less than 0.01% of the volume, and was equivalent in each well. On Day 15, Alamar blue reagent (LifeTechnologies) was added to each well (10 μL/well) and incubated for 24 hours.
In order to mimic tumor growth more accurately in a relevant microenvironment and in a more robust model for predicting response to treatment, a three-dimensional (3D) culture model of patient-derived RP-B-01 and RP-B-02 bladder cancer cells was used. Both RP-B-01 and RP-B-02 cell lines are transitional cell carcinoma staged as T4bN1Mx and T2bN0Mx Grade III tumors, respectively.

With CCC/C(=C\C1=C(OC)C(=O)c2ccccc2C1=O)C(=O)N(CC)CC [APX2009, [(2E)-2-[(3-methoxy-1,4-dioxo-1,4-dihydronaphthalen-2-yl)methylidene]-N,N-diethylpentanamide]] the “potency in RP-B-02 cells in 3D culture relative to APX3330” value was “more potent in the RP-B-02 cells than parent compound APX3330”.

— patent US11331294B2, “Benzoquinone derivative E3330 in combination with chemotherapeutic agents for the treatment of bladder cancer” (Indiana University Research and Technology Corporation, priority 2007, dated 2022)
